The values below come from article PMC10527105, “Chirality Matters: Fine-Tuning of Novel Monoamine Reuptake Inhibitors Selectivity through Manipulation of Stereochemistry” (Biomolecules, 2023).

Holding throughout (format): cell-based
Test [1] addresses T1, human dopamine transporter/SLC6A3 (DAT) (Homo sapiens, UniProt Q01959).
T1 construct: expressed in transfected cells; host or cells: HEK293
As to the kind of experiment: Cellular uptake experiments: [3H]-dopamine reuptake inhibition in transporter-expressing HEK293 cells. The settings on record: for IC50: cells stably expressing DAT, [3H]-dopamine 1 µM, screening cut-off 50 µM. On the procedure:
(§1) Cell culture. Human embryonic kidney (HEK) 293 or SK-N-MC (human neuroblastoma) cells were grown in minimum essential medium with Earle’s salts and L-glutamine, 10% heat-inactivated fetal bovine serum, and 50 mg/L gentamicin. Cells were grown in 100- or 60-mm diameter tissue culture dishes (polystyrene, Falcon) at 37 °C under an atmosphere of 5% CO2/95% air. The human dopamine transporter/SLC6A3 (DAT), noradrenaline transporter/SLC6A2 (NET), or human serotonin transporter/SLC6A4 (SERT) cDNA was stably expressed using methods as described previously.
(§2) Cellular uptake experiments. The transporter-expressing HEK293 cells were seeded in poly-D-lysine-coated 24-well plates (1 × 10^5 cells/well) and, one day later, each well was washed with 0.5 mL uptake buffer and incubated with 0.5 mL buffer containing various concentrations of the drugs. Uptake was started by the addition of [^3H]-dopamine, [^3H]-noradrenaline, or [^3H]-serotonin at a final concentration of 1 µM (specific activity 0.14 Ci/mmol) after 5 min of preincubation. After incubation for 2.5 min (SERT-cells: 5 min) at 25 °C, it was stopped by aspirating the uptake buffer and washing each well twice with 1 mL ice-cold buffer. Nonspecific uptake was determined in the presence of 10 µM mazindol (DAT- and NET-cells) or 10 µM clomipramine (SERT-cells). The radioactivity remaining in each well was determined by incubating with 0.4 mL 1% sodium dodecyl sulphate and transferring this solution into scintillation vials containing 3 mL of scintillation cocktail (Ultima Gold MV, Packard, Dovners Grove, IL, USA). The uptake buffer consisted of (mmol/L): 4 Tris–HCl; 6.25 4-(2-hydroxyethyl)-1-piperazineethanesulfonic acid (HEPES); 120 NaCl; 5 KCl; 1.2 CaCl2; 1.2 MgSO4; 5.6 D-glucose; 0.5 ascorbic acid; pH 7.1.

Test [2] has as its target T2, human serotonin transporter/SLC6A4 (SERT) (Homo sapiens, UniProt P31645).
T2 construct: expressed in transfected cells; host or cells: HEK293
As to the kind of experiment: Cellular uptake experiments: [3H]-serotonin reuptake inhibition in transporter-expressing HEK293 cells. On the procedure: as §1, §2

The target of test [3] is T3, noradrenaline transporter/SLC6A2 (NET) (Homo sapiens, UniProt P23975).
T3 construct: expressed in transfected cells; host or cells: HEK293
T3 sequence (P23975 whole entry): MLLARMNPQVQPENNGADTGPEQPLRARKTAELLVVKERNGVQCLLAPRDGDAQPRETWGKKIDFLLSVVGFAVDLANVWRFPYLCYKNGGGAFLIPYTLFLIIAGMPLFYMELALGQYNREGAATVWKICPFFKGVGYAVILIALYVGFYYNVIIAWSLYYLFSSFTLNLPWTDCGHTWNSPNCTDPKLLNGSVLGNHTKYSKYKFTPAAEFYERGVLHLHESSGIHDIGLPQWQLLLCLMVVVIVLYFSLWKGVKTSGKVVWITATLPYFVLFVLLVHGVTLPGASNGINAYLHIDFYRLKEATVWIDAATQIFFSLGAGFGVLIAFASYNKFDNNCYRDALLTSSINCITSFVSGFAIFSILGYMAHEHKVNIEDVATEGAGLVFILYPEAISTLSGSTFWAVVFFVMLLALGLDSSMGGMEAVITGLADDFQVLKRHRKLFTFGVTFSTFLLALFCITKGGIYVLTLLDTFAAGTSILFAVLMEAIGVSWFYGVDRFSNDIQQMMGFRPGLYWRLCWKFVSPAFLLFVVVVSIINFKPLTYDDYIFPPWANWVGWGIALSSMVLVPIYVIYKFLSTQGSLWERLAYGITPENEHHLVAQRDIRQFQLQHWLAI
Briefly: Cellular uptake experiments: [3H]-noradrenaline reuptake inhibition in transporter-expressing HEK293 cells. On the procedure: as §1, §2

Where [4] appears, read: Reuptake Inhibition (IC50 ± SE, µM) DAT.
Setting [5] is: Reuptake Inhibition (IC50 ± SE, µM) SERT, cells stably expressing SERT; [3H]-serotonin 1 µM; screening cut-off 50 µM.
Setting [6] is: read-out: Reuptake Inhibition (IC50 ± SE, µM) SERT; cells stably expressing SERT; [3H]-serotonin 1 µM; screening cut-off 50 µM.
Where [7] appears, read: Reuptake Inhibition (IC50 ± SE, µM) NET, cells stably expressing NET, [3H]-noradrenaline 1 µM, screening cut-off 50 µM.
Where [8] appears, read: read-out: Reuptake Inhibition (IC50 ± SE, µM) NET, cells stably expressing NET, [3H]-noradrenaline 1 µM, screening cut-off 50 µM.
Setting [9] is: read-out: Reuptake Inhibition (IC50 ± SE, µM) DAT.
Where [10] appears, read: at 50 µM / tested concentration range.
Where [11] appears, read: cells stably expressing SERT; [3H]-serotonin 1 µM; screening cut-off 50 µM; read-out: Reuptake Inhibition (IC50 ± SE, µM) SERT.
The mark [12] stands for this setting: cells stably expressing NET, [3H]-noradrenaline 1 µM, screening cut-off 50 µM, read-out: Reuptake Inhibition (IC50 ± SE, µM) NET.

Read-outs that look alike come from different tables or passages of the source.

T2 sequence (P31645 whole entry): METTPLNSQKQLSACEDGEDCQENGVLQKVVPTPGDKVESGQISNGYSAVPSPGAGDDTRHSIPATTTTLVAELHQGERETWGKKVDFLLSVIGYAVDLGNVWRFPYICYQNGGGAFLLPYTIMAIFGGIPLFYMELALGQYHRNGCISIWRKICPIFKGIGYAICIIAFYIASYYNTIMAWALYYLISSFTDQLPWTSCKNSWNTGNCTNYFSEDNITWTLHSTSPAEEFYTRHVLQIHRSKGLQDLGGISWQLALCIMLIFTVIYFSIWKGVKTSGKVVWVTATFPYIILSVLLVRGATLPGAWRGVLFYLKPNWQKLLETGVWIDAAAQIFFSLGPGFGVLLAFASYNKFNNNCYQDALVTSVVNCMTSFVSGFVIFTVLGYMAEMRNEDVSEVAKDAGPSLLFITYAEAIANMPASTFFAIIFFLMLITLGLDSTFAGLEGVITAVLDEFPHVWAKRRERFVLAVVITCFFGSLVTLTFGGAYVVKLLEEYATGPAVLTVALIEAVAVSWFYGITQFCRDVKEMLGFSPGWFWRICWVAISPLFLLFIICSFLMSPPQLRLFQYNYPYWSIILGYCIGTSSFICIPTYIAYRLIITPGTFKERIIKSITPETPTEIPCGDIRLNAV
T1 sequence (Q01959 whole entry): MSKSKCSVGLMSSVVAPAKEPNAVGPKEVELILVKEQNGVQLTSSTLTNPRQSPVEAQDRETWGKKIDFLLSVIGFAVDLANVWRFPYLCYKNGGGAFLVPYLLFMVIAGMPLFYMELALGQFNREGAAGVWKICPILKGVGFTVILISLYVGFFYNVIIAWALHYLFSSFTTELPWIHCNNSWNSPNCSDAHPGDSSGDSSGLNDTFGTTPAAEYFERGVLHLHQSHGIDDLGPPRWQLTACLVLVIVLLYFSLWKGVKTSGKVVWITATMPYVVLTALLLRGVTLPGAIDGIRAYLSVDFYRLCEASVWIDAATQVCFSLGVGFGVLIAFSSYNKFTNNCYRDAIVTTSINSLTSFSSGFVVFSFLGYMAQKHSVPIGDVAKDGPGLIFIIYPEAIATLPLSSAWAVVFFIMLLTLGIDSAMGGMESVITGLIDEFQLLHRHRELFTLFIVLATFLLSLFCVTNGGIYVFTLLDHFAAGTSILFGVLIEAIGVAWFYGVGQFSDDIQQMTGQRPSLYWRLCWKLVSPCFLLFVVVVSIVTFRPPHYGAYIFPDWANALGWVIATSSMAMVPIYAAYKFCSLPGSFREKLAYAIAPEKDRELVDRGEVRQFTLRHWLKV

For `[O-][S@+](Cc1cccs1)[C@@H](c1ccccc1)c1cccc(Br)c1` [Compound 6h, (R,S)-2-((((3-bromophenyl)(phenyl)methyl)sulfinyl)methyl)thiophene], the IC50 was 15 ± 1 µM in test [1] (setting [4]), greater than 50 µM in test [2] (setting [5]) and greater than 50 µM in test [3].

As for `[O-][S+](Cc1cccs1)C(c1ccccc1)c1ccccc1C(F)(F)F` (stereo not drawn) [Compound 8o, 2-(((phenyl(2-(trifluoromethyl)phenyl)methyl)sulfinyl)methyl)thiophene], the values for the IC50 in test [1] (setting [4]), in test [2] (setting [6]) and in test [3] (setting [7]) were 8.9 ± 0.7 µM, greater than 50 µM and greater than 50 µM, respectively.

As for `COc1cccc(C(c2ccccc2)[S+]([O-])Cc2cccs2)c1` (stereo not drawn) [Compound 8s, 2-((((3-methoxyphenyl)(phenyl)methyl)sulfinyl)methyl)thiophene], the IC50 in test [1] (setting [4]), in test [2] (setting [5]) and in test [3] (setting [8]) was greater than 50 µM in each case.

In the case of `[O-][S@+](Cc1cccs1)[C@@H](c1ccccc1)c1ccccc1Cl` [Compound 7d, (R,S)-2-((((2-chlorophenyl)(phenyl)methyl)sulfinyl)methyl)thiophene], the “activity on DAT (reuptake inhibition), in words” value in test [1] (at 50 µM) was “did not achieve ≥50% of radioligand displacement”. The IC50 in test [1] (setting [9]), in test [2] (setting [11]) and in test [3] (setting [12]) was greater than 50 µM in each case. Besides, the “activity on SERT (reuptake inhibition), in words” value in test [2] (setting [10]) was “did not achieve ≥50% of radioligand displacement”. The “activity on NET (reuptake inhibition), in words” value in test [3] (setting [10]) was “did not achieve ≥50% of radioligand displacement”.

As to `[O-][S+](Cc1cccs1)C(c1ccccc1)c1cccc(I)c1` (stereo not drawn) [Compound 8j, 2-((((3-iodophenyl)(phenyl)methyl)sulfinyl)methyl)thiophene], the IC50 was 1.5 ± 0.17 µM in test [1] (setting [4]), greater than 50 µM in test [2] (setting [6]) and greater than 50 µM in test [3] (setting [8]).

For `COc1ccccc1[C@@H](c1ccccc1)[S@+]([O-])Cc1cccs1` [Compound 5r, (R,R)-2-((((2-methoxyphenyl)(phenyl)methyl)sulfinyl)methyl)thiophene], the IC50 is 31 ± 8 µM in test [1] (setting [4]), greater than 50 µM in test [2] (setting [5]) and greater than 50 µM in test [3] (setting [7]).

Turning to `[O-][S+](Cc1cccs1)C(c1ccccc1)c1cccc(F)c1` (stereo not drawn) [Compound 6b, 2-((((3-fluorophenyl)(phenyl)methyl)sulfinyl)methyl)thiophene], the IC50 in test [1] (setting [9]) is 28 ± 7 µM; in test [2] (setting [11]), greater than 50 µM; in test [3] (setting [12]), greater than 50 µM.

With `[O-][S+](Cc1cccs1)C(c1ccccc1)c1cccc(C(F)(F)F)c1` (stereo not drawn) [Compound 7p, 2-(((phenyl(3-(trifluoromethyl)phenyl)methyl)sulfinyl)methyl)thiophene], the IC50 in test [1] (setting [4]) is 10 ± 1 µM; in test [2] (setting [5]) it was greater than 50 µM; in test [3] (setting [8]), greater than 50 µM.

In the case of `COc1ccc([C@H](c2ccccc2)[S@+]([O-])Cc2cccs2)cc1` [Compound 8t, (R,S)-2-((((4-methoxyphenyl)(phenyl)methyl)sulfinyl)methyl)thiophene], the IC50 in test [1] (setting [4]), in test [2] (setting [5]) and in test [3] (setting [7]) was greater than 50 µM each time.

Turning to `[O-][S+](Cc1cccs1)C(c1ccccc1)c1ccc(F)cc1` (stereo not drawn) [Compound 8c, 2-((((4-fluorophenyl)(phenyl)methyl)sulfinyl)methyl)thiophene], the IC50 is 5.2 ± 0.1 µM in test [1] (setting [9]), 24 ± 6 µM in test [2] (setting [11]) and greater than 50 µM in test [3] (setting [12]).

In the case of `[O-][S+](Cc1cccs1)C(c1ccccc1)c1ccccc1Br` (stereo not drawn) [Compound 8g, 2-((((2-bromophenyl)(phenyl)methyl)sulfinyl)methyl)thiophene], the IC50 in test [1] (setting [4]) was 5.06 ± 0.31 µM; in test [2] (setting [6]) it was greater than 50 µM; in test [3] (setting [8]) it was greater than 50 µM.

For `[O-][S+](Cc1cccs1)C(c1ccccc1)c1ccc(F)cc1` (stereo not drawn) [Compound 6c, 2-((((4-fluorophenyl)(phenyl)methyl)sulfinyl)methyl)thiophene], the IC50 in test [1] (setting [9]) is 10.1 ± 0.3 µM; in test [2] (setting [11]) it was greater than 50 µM; in test [3] (setting [12]), greater than 50 µM.

For `[O-][S@+](Cc1cccs1)[C@@H](c1ccccc1)c1cccc(Cl)c1` [Compound 6e, (R,S)-2-((((3-chlorophenyl)(phenyl)methyl)sulfinyl)methyl)thiophene], the IC50 in test [1] (setting [4]) was 14.1 ± 0.5 µM; in test [2] (setting [5]), greater than 50 µM; in test [3] (setting [7]), greater than 50 µM.

For the molecule `[O-][S+](Cc1cccs1)C(c1ccccc1)c1cccc(C(F)(F)F)c1` (stereo not drawn) [Compound 6p, 2-(((phenyl(3-(trifluoromethyl)phenyl)methyl)sulfinyl)methyl)thiophene], the IC50 in test [1] (setting [4]) was 22 ± 1 µM; in test [2] (setting [5]) it was greater than 50 µM; in test [3] (setting [8]) it was greater than 50 µM.

Turning to `COc1cccc(C(c2ccccc2)[S+]([O-])Cc2cccs2)c1` (stereo not drawn) [Compound 7s, 2-((((3-methoxyphenyl)(phenyl)methyl)sulfinyl)methyl)thiophene], the IC50 in test [1] (setting [4]) was 1.56 ± 0.24 µM; in test [2] (setting [5]), greater than 50 µM; in test [3] (setting [8]), greater than 50 µM.

For the molecule `Cc1cccc([C@@H](c2ccccc2)[S@+]([O-])Cc2cccs2)c1` [Compound 8m, (R,R)-2-(((phenyl(m-tolyl)methyl)sulfinyl)methyl)thiophene], the IC50 is 1.56 ± 0.25 µM in test [1] (setting [4]), greater than 50 µM in test [2] (setting [5]) and greater than 50 µM in test [3] (setting [7]).

In the case of `[O-][S+](Cc1cccs1)C(c1ccccc1)c1ccccc1I` (stereo not drawn) [Compound 6i, 2-((((2-iodophenyl)(phenyl)methyl)sulfinyl)methyl)thiophene], the IC50 is 20.3 ± 0.6 µM in test [1] (setting [4]), greater than 50 µM in test [2] (setting [6]) and greater than 50 µM in test [3] (setting [8]).

On to `[O-][S@@+](Cc1cccs1)[C@H](c1ccccc1)c1ccc(Cl)cc1` [Compound 5f, (S,R)-2-((((4-chlorophenyl)(phenyl)methyl)sulfinyl)methyl)thiophene], for which the IC50 in test [1] (setting [4]) is 12 ± 1 µM; in test [2] (setting [5]), greater than 50 µM; in test [3] (setting [7]), greater than 50 µM.

`[O-][S+](Cc1cccs1)C(c1ccccc1)c1ccc(C(F)(F)F)cc1` (stereo not drawn) [Compound 6q, 2-(((phenyl(4-(trifluoromethyl)phenyl)methyl)sulfinyl)methyl)thiophene]: the concentration for half-maximal inhibition (IC50) in test [1] (setting [4]) is 40 ± 9 µM; in test [2] (setting [5]) it was greater than 50 µM; in test [3] (setting [8]) it was greater than 50 µM.

Consider `[O-][S+](Cc1cccs1)C(c1ccccc1)c1cccc(I)c1` (stereo not drawn) [Compound 6j, 2-((((3-iodophenyl)(phenyl)methyl)sulfinyl)methyl)thiophene], for which the figures for the IC50 in test [1] (setting [4]), in test [2] (setting [6]) and in test [3] (setting [8]) were 17.7 ± 2.2 µM, greater than 50 µM and greater than 50 µM, respectively.

On to `[O-][S+](Cc1cccs1)C(c1ccc(F)cc1)c1ccc(Cl)cc1` (stereo not drawn) [Compound 5u, 2-((((4-chlorophenyl)(4-fluorophenyl)methyl)sulfinyl)methyl)thiophene], for which the IC50 was 4.5 ± 1.8 µM in test [1] (setting [4]), greater than 50 µM in test [2] (setting [5]) and greater than 50 µM in test [3] (setting [7]).

Regarding `[O-][S@@+](Cc1cccs1)[C@H](c1ccccc1)c1ccc(I)cc1` [Compound 5k, (S,R)-2-((((4-iodophenyl)(phenyl)methyl)sulfinyl)methyl)thiophene], the IC50 was 5.1 ± 0.6 µM in test [1] (setting [4]), greater than 50 µM in test [2] (setting [5]) and greater than 50 µM in test [3] (setting [7]).

With `[O-][S@@+](Cc1cccs1)[C@H](c1ccccc1)c1cccc(Br)c1` [Compound 5h, (S,R)-2-((((3-bromophenyl)(phenyl)methyl)sulfinyl)methyl)thiophene], the IC50 in test [1] (setting [4]) is 1.8 ± 0.4 µM; in test [2] (setting [5]) it was greater than 50 µM; in test [3], greater than 50 µM.

In the case of `Cc1cccc([C@H](c2ccccc2)[S@+]([O-])Cc2cccs2)c1` [Compound 6m, (R,S)-2-(((phenyl(m-tolyl)methyl)sulfinyl)methyl)thiophene], the IC50 in test [1] (setting [4]), in test [2] (setting [5]) and in test [3] (setting [7]) was greater than 50 µM throughout.

Consider `[O-][S+](Cc1cccs1)C(c1ccccc1)c1ccc(F)cc1` (stereo not drawn) [Compound 5c, 2-((((4-fluorophenyl)(phenyl)methyl)sulfinyl)methyl)thiophene], for which the IC50 in test [1] (setting [9]) is 7.8 ± 0.7 µM; in test [2] (setting [11]), greater than 50 µM; in test [3] (setting [12]), greater than 50 µM.
